Assay results as given in PMC11912224, “A general approach for activity-based protein profiling of oxidoreductases with redox-differentiated diarylhalonium warheads” (Chemical Science, 2025).

Columns and labels:
[1] = target: T1, ALDH2 (aldehyde dehydrogenase 2, recombinant human) (Homo sapiens, UniProt P05091); assay: activity-based labelling, in-gel fluorescence; assay type: binding; settings: covalent; 30 uM probe, 1 h
T1 construct: recombinant
T1 sequence (P05091 18-517): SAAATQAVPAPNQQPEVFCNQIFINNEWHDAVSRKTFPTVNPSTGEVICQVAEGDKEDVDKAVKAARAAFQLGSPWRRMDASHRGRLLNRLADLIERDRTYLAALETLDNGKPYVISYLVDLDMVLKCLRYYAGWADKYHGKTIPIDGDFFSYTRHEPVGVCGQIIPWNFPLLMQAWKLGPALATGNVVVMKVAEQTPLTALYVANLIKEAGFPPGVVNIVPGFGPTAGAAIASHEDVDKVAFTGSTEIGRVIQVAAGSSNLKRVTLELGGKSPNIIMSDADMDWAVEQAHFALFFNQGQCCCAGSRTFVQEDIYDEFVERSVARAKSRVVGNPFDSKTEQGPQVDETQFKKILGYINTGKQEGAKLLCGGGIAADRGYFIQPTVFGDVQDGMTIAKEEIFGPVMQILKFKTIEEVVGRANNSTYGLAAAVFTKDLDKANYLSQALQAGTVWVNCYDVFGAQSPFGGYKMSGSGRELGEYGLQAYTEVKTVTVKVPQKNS

heme oxygenase 2 (HMOX2) = target: T2, heme oxygenase 2 (HMOX2) (Mus musculus, UniProt O70252); assay: covalent labelling, streptavidin enrichment, LC-MS/MS; settings: 30 uM probe, 1 h, mouse liver pieces
T2 construct: native, in intact mouse liver pieces
T2 sequence (O70252 2-315): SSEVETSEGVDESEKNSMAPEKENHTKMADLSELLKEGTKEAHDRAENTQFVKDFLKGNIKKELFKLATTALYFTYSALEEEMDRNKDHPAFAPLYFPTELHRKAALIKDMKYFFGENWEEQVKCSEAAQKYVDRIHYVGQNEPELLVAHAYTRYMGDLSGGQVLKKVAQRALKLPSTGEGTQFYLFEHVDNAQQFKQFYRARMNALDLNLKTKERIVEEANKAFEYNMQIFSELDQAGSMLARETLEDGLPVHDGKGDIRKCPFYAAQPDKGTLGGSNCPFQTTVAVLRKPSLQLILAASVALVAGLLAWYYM

[2] = target: T3, CYP27A1 (sterol-26-hydroxylase) (Mus musculus, UniProt Q9DBG1); assay: as above; settings: 30 uM probe, 1 h, mouse liver pieces
T3 construct: native, in intact mouse liver pieces
T3 sequence (Q9DBG1 33-533): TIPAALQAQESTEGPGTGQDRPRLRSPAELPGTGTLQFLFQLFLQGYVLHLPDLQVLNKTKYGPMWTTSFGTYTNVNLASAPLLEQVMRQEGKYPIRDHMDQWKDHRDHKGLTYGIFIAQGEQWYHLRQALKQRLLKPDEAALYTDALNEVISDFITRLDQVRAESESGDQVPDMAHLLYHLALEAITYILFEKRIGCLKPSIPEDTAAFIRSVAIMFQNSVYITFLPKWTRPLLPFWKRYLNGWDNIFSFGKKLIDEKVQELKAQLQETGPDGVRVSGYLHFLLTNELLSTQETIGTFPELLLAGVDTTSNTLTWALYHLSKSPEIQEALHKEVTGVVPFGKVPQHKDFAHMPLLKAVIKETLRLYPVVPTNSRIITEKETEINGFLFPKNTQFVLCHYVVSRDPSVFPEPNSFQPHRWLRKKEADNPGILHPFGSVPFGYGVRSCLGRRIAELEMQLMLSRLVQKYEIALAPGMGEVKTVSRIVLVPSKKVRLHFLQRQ

[3] = target: T4, retinol dehydrogenase RDH16 (Mus musculus, UniProt O54909); assay: as above; settings: 30 uM probe, 1 h, mouse liver pieces
T4 construct: native, in intact mouse liver pieces
T4 sequence (O54909 1-317): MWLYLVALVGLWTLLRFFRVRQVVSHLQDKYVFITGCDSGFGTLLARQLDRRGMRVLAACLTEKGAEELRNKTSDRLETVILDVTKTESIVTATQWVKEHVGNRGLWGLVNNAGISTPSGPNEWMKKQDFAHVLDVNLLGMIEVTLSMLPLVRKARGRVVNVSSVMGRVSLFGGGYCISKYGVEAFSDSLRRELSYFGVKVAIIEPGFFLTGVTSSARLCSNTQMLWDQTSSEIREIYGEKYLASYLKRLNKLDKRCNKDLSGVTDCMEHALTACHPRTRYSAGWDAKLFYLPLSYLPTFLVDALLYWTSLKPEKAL

CHO (choline oxidase) = target: T5, CHO (choline oxidase) (Glutamicibacter nicotianae, UniProt A0ABQ0RMK5); assay: activity-based labelling, in-gel fluorescence; assay type: binding; settings: covalent; 30 uM probe, 1 h
T5 construct: gene ANI01nite_22550; recombinant; FAD enzyme; details not in main text
T5 sequence (A0ABQ0RMK5 1-523): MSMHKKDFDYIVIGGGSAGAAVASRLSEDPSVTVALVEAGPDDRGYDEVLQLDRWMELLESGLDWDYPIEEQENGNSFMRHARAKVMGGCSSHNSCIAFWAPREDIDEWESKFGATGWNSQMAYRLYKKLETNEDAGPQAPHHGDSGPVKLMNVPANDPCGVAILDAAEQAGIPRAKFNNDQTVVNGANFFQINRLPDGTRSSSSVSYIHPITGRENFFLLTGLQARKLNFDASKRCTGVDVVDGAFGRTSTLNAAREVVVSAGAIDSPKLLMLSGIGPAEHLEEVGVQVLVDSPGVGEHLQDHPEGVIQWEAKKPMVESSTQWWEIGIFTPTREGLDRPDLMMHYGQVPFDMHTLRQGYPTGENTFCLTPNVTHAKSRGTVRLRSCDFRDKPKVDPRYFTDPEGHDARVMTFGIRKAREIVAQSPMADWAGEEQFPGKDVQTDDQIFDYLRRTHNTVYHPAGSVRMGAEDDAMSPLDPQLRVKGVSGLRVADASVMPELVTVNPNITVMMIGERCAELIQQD

CYP3A25 = target: T6, CYP3A25 (Mus musculus, UniProt O09158); assay: covalent labelling, streptavidin enrichment, LC-MS/MS; settings: 30 uM probe, 1 h, mouse liver pieces
T6 construct: native, in intact mouse liver pieces
T6 sequence (O09158 1-503): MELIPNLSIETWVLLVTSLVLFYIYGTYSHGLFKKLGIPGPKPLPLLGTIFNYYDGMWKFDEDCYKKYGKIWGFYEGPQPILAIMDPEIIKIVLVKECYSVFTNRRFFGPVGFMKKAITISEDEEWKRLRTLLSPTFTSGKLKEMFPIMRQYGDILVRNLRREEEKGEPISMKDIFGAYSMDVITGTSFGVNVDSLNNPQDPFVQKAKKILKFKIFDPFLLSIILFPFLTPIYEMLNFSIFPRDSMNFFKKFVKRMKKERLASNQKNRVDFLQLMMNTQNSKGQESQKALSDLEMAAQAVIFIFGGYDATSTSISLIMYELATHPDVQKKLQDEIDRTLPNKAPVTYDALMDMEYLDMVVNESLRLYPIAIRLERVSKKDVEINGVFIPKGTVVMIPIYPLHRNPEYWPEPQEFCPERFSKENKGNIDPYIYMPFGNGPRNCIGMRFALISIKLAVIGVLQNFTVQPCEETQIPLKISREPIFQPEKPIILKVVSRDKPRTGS

[N-]=[N+]=NCCCCCCCCCCNC(=O)c1ccc([I+]c2ccccc2)cc1 [3aa, diphenyliodonium probe 3aa]
activity-based labelling, in-gel fluorescence [1]: led to the labeling of several of the tested oxidoreductases
covalent labelling, streptavidin enrichment, LC-MS/MS (heme oxygenase 2 (HMOX2)): HMOX2 was significantly enriched by diaryliodonium probes 3aa, 3ca, and 3da
covalent labelling, streptavidin enrichment, LC-MS/MS [2]: cytochrome P450 monooxygenases (CYP3A25, CYP27A1)
covalent labelling, streptavidin enrichment, LC-MS/MS [3]: RDH7 and RDH16 were found to be labeled by probe 3aa very well
activity-based labelling, in-gel fluorescence (CHO (choline oxidase)): led to the labeling of several of the tested oxidoreductases
covalent labelling, streptavidin enrichment, LC-MS/MS (CYP3A25): cytochrome P450 monooxygenases (CYP3A25, CYP27A1)
